# US20160289449A1, “PROTEIN-BASED BIOPLASTICS AND METHODS OF USE” (University of Georgia Research Foundation, Inc., priority 2015, published 2016)
# Tests used:
# [1] = system: Gram (−) specie Escherichia coli; assay: Drug elution and zone of inhibition study (disk susceptibility, M02-A11); assay type: cell-based
# Description: (§1) After preparation, the samples were then cut into disk-sized plastics that were applied to the surface of Mueller-Hinton agar dishes that had been already inoculated with either Gram (+) specie Bacillius subtilis or the Gram (−) specie Escherichia coli at a concentration of 1-5×10^8 cells/mL. After application, the plates were then incubated for five days 30° C., during which the zones of inhibition were measured every 24 hours to determine the change of diameter of the inhibition zone size over time. Samples were run in triplicate (n=3) for each plastic type-additive combination (as well as the LDPE plastic control samples) in order to ensure precision.
# (§2) To compare the ability of plastics to elute drug and to determine the effect of the addition of LDPE into plastics, statistical analyses were performed by fitting a regression model.
# [2] = system: Gram (+) specie Bacillius subtilis; assay: as above; assay type: cell-based, Bacillus subtilis
# Description: as §1, §2
# bacteria = conditions: cited from earlier work
# [3] = plastics with 15% of the additive, range over plastic types
# [4] = plastics with the additive imbedded
compound,measurement,setting,value
O=NO [sodium nitrite],inhibition zone after 5 days,[1]; [3],0 mm
same,zones of inhibition on inoculated petri dishes (in words),[1]; [4],did not generate any zones of inhibition
same,inhibition zone after 5 days,[2]; [3],0 mm
same,zones of inhibition on inoculated petri dishes (in words),[2]; [4],did not generate any zones of inhibition
O=C([O-])c1ccccc1.[Na+] [sodium benzoate],zone of inhibition at decreased amount of food preservative (in words),[2]; 10% and 5% additive in the plastic,unable to produce a zone of inhibition
OCC(O)CO [glycerol],concentration required for bacteriocidial properties,bacteria,at least 28%
